Where two headings read alike, the source gives them in different places. A value given as a limit tells only on which side of the number the result lay.

Series [1] has as its system scn1lab mutant zebrafish. The series is described as follows: Electrophysiological recording of seizure-like hyperexcitability in the tectum opticum of scn1lab zebrafish. Type of series: in vivo. As to the method: Briefly, 6 dpf zebrafish (WT and scn1lab mutants) were paralyzed (α-bungarotoxin, 1 mg/ml, Tocris) and embedded in agarose. The dorsal side of the zebrafish was exposed to the agarose gel surface and a glass microelectrode was placed into the tectum opticum of zebrafish and electrophysiological measurements were recorded. […] Care was taken not to disrupt the pipette or move the fish in any manner. Seizure-like activity was defined by high-frequency, large amplitude spikes, as defined elsewhere (Baraban et al, 2013). Both itcal (>1000 ms in duration) and inter-ictal (<300 ms in duration) activity was observed upon zooming in on a section of the EEG trace (data not shown), consistent with epileptiform events.

In series [2] the test system is 6 Hz-induced psychomotor seizures. Description: 6 Hz psychomotor seizure induction mouse model. Type of series: in vivo. The source says: To examine the acute effect of PDE4 inhibition on seizures, the 6 Hz psychomotor model that represents therapy-resistant limbic seizures was employed (White et al., 1995; Barton et al., 2001). Briefly, compounds were screened for their ability to block psychomotor seizures induced by a low-frequency (6 Hz), long-duration (3 sec) stimulus delivered through corneal electrodes. These seizures are believed to model partial seizures observed in humans. […]

The test system of series [3] is scn1lab mutant zebrafish. It is filed as in vivo. Conditions: for OCR response / bioenergetics relative to WT baseline: 40 μM dose of PDE4 inhibitor. As to the method:
The scn1lab mutant zebrafish employed in this Experimental section are homozygous, loss-of-function mutants. To measure bioenergetics in whole, living zebrafish (further details of which may be found in Ibhazehiebo et al. (2018) Brain 141(3):744-761), zebrafish larvae (5 days post-fertilization, dpf) were seeded into 24-well islet capture microplates (Agilent) and pre-exposed to vehicle or drug for 20 minutes prior to the start of the assay. Oxygen consumption rates (OCR) were measured using the Seahorse Bioanalyzer (Agilent).
In a similar assay to that described above, scn1lab mutants are exposed to a 40 μM dose of a range of PDE4 inhibitors. […]

The subject of another series is Scn1a mutant mice. The series is described as follows: Hyperthermia-induced seizures in Scn1a mutant mice. It is filed as in vivo, mouse. Conditions: for block of seizures (partial = seizure temperature changed; full = no seizure elicited): FIG. 15 comparison, pre-treatment with PDE4 inhibitor. On the procedure: As shown in FIG. 13 (panels A and B), an example PDE4 inhibitor (AN2728) protects against hyperthermia-induced seizures in Scn1a mutant mice. In this model, a Scn1a mutant animal's core temperature is raised using an external heat source and consequently, brain temperature is raised and this leads to hyperthermic seizures. These hyperthermic seizures are thought to represent febrile seizures. In the Scn1a mutants, seizures begin around 41° C., whereas in the WT seizures are rarely detected even at temperatures as high as 43° C. […] FIG. 12B is the same data graphed differently.
A partial block in seizures is noted when the temperature required to induce a seizure is statistically different than wildtype and a full block in seizures occurs when no seizure is elicited following pre-treatment with the PDE4 inhibitor.

Series [4] deals with mouse Scn1a mutant brain ex vivo slices. The series is described as follows: Extracellular field recordings in mouse Scn1a mutant brain ex vivo slices. Particulars: AN2728, 40 μM; adult Scn1a heterozygous mutant brain slices; n=3. As to the method:
The mouse Scn1a mutants employed in this Experimental section were heterozygous mutants (Scn1a−/− mice die early postnatally). […] In this assay, adult Scn1a mutant brains were rapidly removed and sectioned for electrophysiological assays. Here, extracellular field recordings were conducted to measure baseline electrophysiological activity, prior to the addition of PDE4 inhibitor (AN2728, 40 μM). A decrease in hyperexcitable amplitude and frequency was measured in the presence of AN2728.

Series [5] has as its system Dravet syndrome (DS) patients. Particulars: cited from earlier work.
Another series deals with kcna1 mutant zebrafish. The series is described as follows: Bioenergetics in kcna1 mutant zebrafish (model of generalizable epilepsy and SUDEP). It is filed as in vivo.
The mark [6] stands for this setting: after treatment with AN2728, n=6-10.

As for `N#Cc1ccc(Oc2ccc3c(c2)COB3O)cc1` [AN2728, 5-(4-cyanophenoxy)-2,3-dihydro-1-hydroxy-2,1-benzoxaborole], in the series with scn1lab mutant zebrafish [1] (AN2728, 40 μM, 6 dpf scn1lab mutants), the seizure-like activity result is “blocked this seizure-like activity to baseline levels”. For the same compound, the peak amplitude entry in the series with scn1lab mutant zebrafish [1] (setting [6]) is recorded as “decrease”. Also, the seizure frequency entry with scn1lab mutant zebrafish [1] (setting [6]) is on record as “decrease”. For the same compound, the “animals that responded (protected) in 6 Hz test” value was 1 in series [2] (dosed 30 min prior to the 6 Hz test, highest dose 300 mg/kg) and “three out of four” in series [2] (treated two hours prior to the 6 Hz test). Moreover, the “OCR response relative to WT” value is given as “ineffective” in the series with scn1lab mutant zebrafish [3] (AN2728 1 nM-100 nM doses, 5 dpf larvae); “fully restoring OCR response to WT levels” with scn1lab mutant zebrafish [3] (AN2728 1 μM, 5 dpf larvae); “fully restoring OCR response to WT levels” in the series on scn1lab mutant zebrafish [3] (AN2728 10 μM, 5 dpf larvae). Also, the “toxicity (drop of OCR response below mutant levels)” value in the series with scn1lab mutant zebrafish [3] (AN2728 100 μM, 5 dpf larvae) is reported as “toxic”. In the series on scn1lab mutant zebrafish [3] (AN2728 dose series 1 nM-100 μM, 5 dpf larvae, 20 min pre-exposure), the “restoration of bioenergetics (OCR)” value is “dose-dependent restoration of bioenergetics”. Moreover, in the series with Scn1a mutant mice (AN2728 treatment), the “animals that do not ever experience a seizure” value is 3. The “protection against hyperthermia-induced seizures” value in the series with Scn1a mutant mice (AN2728 treatment) is reported as “protected against hyperthermia-induced seizures”. The “temperature at which the remaining animals experience a seizure” value with Scn1a mutant mice (AN2728 treatment, untreated mutants seize around 41° C.) is ~42 °C. Further, the “block of seizures (partial = seizure temperature changed; full = no seizure elicited)” value in the series on Scn1a mutant mice is given as “partially or fully block seizures”. Further, the hyperexcitable amplitude entry in series [4] is recorded as “decrease”. Besides, the hyperexcitable frequency result in series [4] is “decrease”.

Turning to `C=C(C)[C@@H]1CCC(C)=C[C@H]1c1c(O)cc(CCCCC)cc1O` [CBD, cannabidiol], in series [5], the “patients achieving full seizure freedom” value was < 5% and the “patients with reduced seizure frequency” value is given as 43%.

As for `COc1ccc([C@]2(C#N)CC[C@@H](C(=O)O)CC2)cc1OC1CCCC1` [Cilomilast, cilomilast], the “OCR response / bioenergetics relative to WT baseline” value with scn1lab mutant zebrafish [3] is given as “restored OCR response to baseline levels”.

`CCOc1ccc(/C=C2\NCCc3cc(OCC)c(OCC)cc32)cc1OCC` [Drotaverine, drotaverine]: the “OCR response / bioenergetics relative to WT baseline” value with scn1lab mutant zebrafish [3] is reported as “effective in restoring bioenergetics to baseline levels”.

As to `Nc1nc(N)nc(-c2cc(Cl)ccc2Cl)n1` [Irsogladine, irsogladine], in the series with scn1lab mutant zebrafish [3], the “OCR response / bioenergetics relative to WT baseline” value was “effective in restoring bioenergetics to baseline levels”.

Turning to `O=C(Nc1c(Cl)cncc1Cl)c1ccc(OC(F)F)c(OCC2CC2)c1` [Roflumilast, roflumilast], the “bioenergetics relative to wild-type baseline” value in the series with kcna1 mutant zebrafish is “restore bioenergetics in a kcna1 mutant zebrafish back to baseline levels”. Moreover, the “OCR response / bioenergetics relative to WT baseline” value in the series with scn1lab mutant zebrafish [3] is recorded as “restored OCR response to baseline levels”. Further, the “block of seizures (partial = seizure temperature changed; full = no seizure elicited)” value in the series on Scn1a mutant mice is on record as “partially or fully block seizures”.

In the case of `COc1ccc(C2CNC(=O)C2)cc1OC1CCCC1` (stereo not drawn) [Rolipram, rolipram], in the series on Scn1a mutant mice, the “block of seizures (partial = seizure temperature changed; full = no seizure elicited)” value is given as “partially or fully block seizures”. Moreover, in the series on Scn1a mutant mice (rolipram, 3 mg/kg), the “protection against hyperthermia-induced seizures” value is “neuroprotective against hyperthermia-induced seizures” and the “temperature required to induce a seizure” value is recorded as “raising”. For the same compound, the “severity of the seizure, Racine scale level” value in the series on Scn1a mutant mice (rolipram, 3 mg/kg, from mostly 4-5 level without treatment) was found to be 3.

Consider `Cn1c(=O)c2[nH]cnc2n(C)c1=O` [Theophylline, theophylline], for which the “bioenergetics relative to wild-type baseline” value in the series on kcna1 mutant zebrafish is reported as “restore bioenergetics in a kcna1 mutant zebrafish back to baseline levels”. Moreover, the “OCR response / bioenergetics relative to WT baseline” value in the series on scn1lab mutant zebrafish [3] was “effective in restoring bioenergetics to baseline levels”.

The record behind these values is patent publication US20220098257A1, “Methods of Treating Epilepsy via Phosphodiesterase 4 (PDE4) Inhibition” (Path Therapeutics, Inc., priority 2019, published 2022).
